Reference: patent US4849207A, “Porphyrin derivatives” (Nihon Medi-Physics Co., Ltd., priority 1985, dated 1989)

Assays:
[1] = system: pancreatic cancer; test: Distribution of a radioactive diagnostic agent in cancer-bearing hamster (cancer/organ radioactivity level ratio); conditions: 300 μCi i.v., 96 hours after administration
Procedure: With lapse of time, the animals were sacrificed, and the organs were extracted and subjected to measurement of radioactivity and weight, from which the radioactivity level ratio between the cancer and each organ was determined.
With lapse of time, the animals were sacrificed, and the ogans were extracted and subjected to measurement of radioactivity and weight, from which the radioactivity level ratio between the cancer and each organ was determined.

[2] = system: pancreatic cancer; test: Scintigraphy in cancer-bearing hamster; format: in vivo; conditions: 300 μCi i.v., 72 and 96 hours after administration
Procedure: (§1) Scintigraphy was obtained 72 and 96 hours after the administration by the use of a gamma-camera equipped with a medium energy high resolution type collimator.

[3] = system: tumor; test: Distribution in cancer-bearing and inflammation-induced hamsters, tumor to tissue
Procedure: as §1

[4] = system: inflammation (turpentine oil induced); test: Distribution in cancer-bearing and inflammation-induced hamsters, inflammation to tissue; conditions: 72 hour post-injection
Procedure: as §1

[5] = system: inflammation (croton oil induced); test: Distribution in inflammation-induced rats, inflammation to tissue; format: in vivo, SD rats
Procedure: SD rats of about 200 grams in bodyweight received croton oil (0.1 ml) at the right hind leg subcutaneously to induce inflammation. […] The radioactivity level ratio between the inflamation and each tissue was determined.

[6] = 72 hour post-injection, mean and s.d. for 3 animals, or mean for 2 animals
[7] = hamster, mean and s.d. for 3 animals, or mean for 2 animals
[8] = SD rat, 72 hour post-injection, mean and s.d. for 3 animals

## 2-[1-(^111 In-diethylenetriamine-tetraacetic acid-acetyloxyethane)oxyethyl]-4-[1-(2-hydroxyethyl)oxyethyl] Ga-deuteroporphyrin [^111 In--monoDTPA--EG Ga--DP]
[1]
  Cancer/Blood radioactivity level ratio: 61.89
  Cancer/Heart radioactivity level ratio: 3.41
  Cancer/Kidney radioactivity level ratio: 0.91
  Cancer/Liver radioactivity level ratio: 0.53
  Cancer/Lung radioactivity level ratio: 1.33
  Cancer/Spleen radioactivity level ratio: 0.43
[2]
  scintigraphic imaging of the locus of cancer: the locus of cancer could be clearly imaged at both stages
[3]; 72 hour post-injection
  imaging of tumor compared with ^67 Ga citrate (in words): superior to ^67 Ga citrate
[3]; [6]
  Tumor to tissue concentration ratio: Blood: 55.75 ± 10.61
  Tumor to tissue concentration ratio: Heart: 1.14 ± 0.28
  Tumor to tissue concentration ratio: Kidney: 0.79 ± 0.08
  Tumor to tissue concentration ratio: Liver: 0.21 ± 0.06
  Tumor to tissue concentration ratio: Lung: 0.52 ± 0.33
  Tumor to tissue concentration ratio: Muscle: 22.16 ± 6.53
  Tumor to tissue concentration ratio: Spleen: 0.16 ± 0.03
[3]; from Table 5, compared with each other
  affinities to tumor and inflammation (in words): nearly equal in affinities to tumor and inflammation
[4]
  imaging of inflammation compared with ^67 Ga citrate (in words): inferior to ^67 Ga citrate
[4]; [7]
  Inflammation to tissue concentration ratio: Blood: 22.96 ± 9.56
  Inflammation to tissue concentration ratio: Heart: 0.49 ± 0.26
  Inflammation to tissue concentration ratio: Kidney: 0.33 ± 0.13
  Inflammation to tissue concentration ratio: Liver: 0.21 ± 0.16
  Inflammation to tissue concentration ratio: Lung: 0.21 ± 0.14
  Inflammation to tissue concentration ratio: Muscle: 8.71 ± 2.98
  Inflammation to tissue concentration ratio: Spleen: 0.06 ± 0.01
[5]; [8]
  Inflammation to tissue concentration ratio: Blood: 185.25 ± 82.70
  Inflammation to tissue concentration ratio: Heart: 2.40 ± 0.63
  Inflammation to tissue concentration ratio: Kidney: 1.42 ± 0.35
  Inflammation to tissue concentration ratio: Liver: 0.14 ± 0.04
  Inflammation to tissue concentration ratio: Lung: 1.43 ± 0.32
  Inflammation to tissue concentration ratio: Muscle: 19.23 ± 10.45
  Inflammation to tissue concentration ratio: Spleen: 0.18 ± 0.03
[5]; from Table 6
  accumulation in inflammation compared with ^67 Ga citrate (in words): much lesser accumulation in inflammation than ^67 Ga citrate
